Among the data in patent publication US12077503B2, “Substituted cyclic amides and their use as herbicides” (FMC CORPORATION, priority 2015, dated 2024) are pest or weed control values, retold here.

Read-outs that look alike come from different tables or passages of the source.

Holding throughout (test): Test A preemergence
What all share (assay type): in vivo

The subject of assay [1] is barnyardgrass (Echinochloa crus-galli). The conditions noted are these: Echinochloa crus-galli, pre-emergence, 240 h; for pest or weed control at 125 g/ha: 125 g ai/ha; for pest or weed control at 500 g/ha: 500 g ai/ha. An outline of the steps:
(§1)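 Visual injury scores from 0, no effect, to 100, complete control, were assigned versus untreated controls roughly 10 d after treatment in the greenhouse. Test chemicals, formulated with surfactant in a non-phytotoxic solvent, were applied to planted seeds as a preemergence soil spray or postemergence to one- to two-leaf plants 2 to 10 cm tall, in loam–sand soil.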

Assay [2] has as its system ryegrass, Italian (Italian ryegrass, Lolium multiflorum). The settings on record: Lolium multiflorum, pre-emergence, 240 h; for pest or weed control at 500 g/ha: 500 g ai/ha; for pest or weed control at 125 g/ha: 125 g ai/ha. An outline of the steps: as §1
Assay [3] concerns Kochia (Kochia scoparia). The settings on record: Bassia scoparia, pre-emergence, 240 h; for pest or weed control at 125 g/ha: 125 g ai/ha; for pest or weed control at 500 g/ha: 500 g ai/ha. An outline of the steps:
as §1

In assay [4] the test system is ragweed (common ragweed, Ambrosia elatior). The conditions noted are these: Ambrosia artemisiifolia, pre-emergence, 240 h; for pest or weed control at 500 g/ha: 500 g ai/ha; for pest or weed control at 125 g/ha: 125 g ai/ha. In a few lines:
as §1

Assay [5] relates to giant foxtail (Setaria faberii). The settings on record: Setaria faberi, pre-emergence, 240 h; for pest or weed control at 125 g/ha: 125 g ai/ha; for pest or weed control at 500 g/ha: 500 g ai/ha. An outline of the steps: as §1
[6] abbreviates: preemergence, 0 to 100 scale where 0 is no effect and 100 is complete control, read-out: Barnyardgrass plant response rating.
[7] abbreviates: preemergence, visual injury rating about 10 d after treatment, 0 to 100 scale (0 no effect, 100 complete control), read-out: Barnyardgrass plant response rating.
The mark [8] stands for this setting: preemergence, visual injury rating about 10 d after treatment, 0 to 100 scale (0 no effect, 100 complete control), read-out: Ryegrass, Italian plant response rating.
Setting [9] is: preemergence, 0 to 100 scale where 0 is no effect and 100 is complete control, read-out: Kochia plant response rating.
[10] abbreviates: preemergence, visual injury rating about 10 d after treatment, 0 to 100 scale (0 no effect, 100 complete control), read-out: Kochia plant response rating.
Where [11] appears, read: preemergence, visual injury rating about 10 d after treatment, 0 to 100 scale (0 no effect, 100 complete control), read-out: Ragweed plant response rating.
[12] abbreviates: preemergence, 0 to 100 scale where 0 is no effect and 100 is complete control, read-out: Foxtail, Giant plant response rating.
[13] abbreviates: preemergence, visual injury rating about 10 d after treatment, 0 to 100 scale (0 no effect, 100 complete control), read-out: Foxtail, Giant plant response rating.
Where [14] appears, read: Preemergence, visual injury vs untreated controls after approximately 10 d, read-out: Barnyardgrass plant response rating (0 to 100 scale where 0 is no effect and 100 is complete control).
[15] abbreviates: preemergence, 0 to 100 scale where 0 is no effect and 100 is complete control, read-out: Ryegrass, Italian plant response rating.
The mark [16] stands for this setting: Preemergence, visual injury vs untreated controls after approximately 10 d, read-out: Ryegrass, Italian plant response rating (0 to 100 scale where 0 is no effect and 100 is complete control).
Setting [17] is: Preemergence, visual injury vs untreated controls after approximately 10 d, read-out: Kochia plant response rating (0 to 100 scale where 0 is no effect and 100 is complete control).
Where [18] appears, read: preemergence, 0 to 100 scale where 0 is no effect and 100 is complete control, read-out: Ragweed plant response rating.
[19] abbreviates: Preemergence, visual injury vs untreated controls after approximately 10 d, read-out: Ragweed plant response rating (0 to 100 scale where 0 is no effect and 100 is complete control).
Where [20] appears, read: Preemergence, visual injury vs untreated controls after approximately 10 d, read-out: Foxtail, Giant plant response rating (0 to 100 scale where 0 is no effect and 100 is complete control).

Consider `Cc1cc([C@H]2CN(C)C(=O)[C@@H]2C(=O)Nc2ccc(F)c(F)c2F)ccc1Cl` [Compound 931], for which the pest or weed control at 125 g/ha in assay [1] (setting [6]), in assay [3] (setting [9]) and in assay [5] (setting [12]) was 90% throughout. Besides, the pest or weed control at 500 g/ha in assay [1] (setting [7]) stood at 90%; in assay [2] (setting [8]) it was 70%; in assay [3] (setting [10]), 90%; in assay [4] (setting [11]), 30%; in assay [5] (setting [13]), 90%.
In the case of `Cc1cc([C@H]2CN(C)C(=O)[C@@H]2C(=O)Nc2ccccc2C(F)(F)F)ccc1Cl` [Compound 932], the pest or weed control at 125 g/ha turned out to be 90% in assay [1] (setting [6]), 40% in assay [3] (setting [9]) and 90% in assay [5] (setting [12]). The pest or weed control at 500 g/ha was found to be 90% in assay [1] (setting [7]); 60% in assay [2] (setting [8]); 70% in assay [3] (setting [10]); 30% in assay [4] (setting [11]); 100% in assay [5] (setting [13]).
Turning to `Cc1c(F)cccc1NC(=O)[C@H]1C(=O)N(C)C[C@@H]1c1cc(F)c(F)c(F)c1` [Compound 867], the pest or weed control at 125 g/ha in assay [1] (setting [6]) was 90%; in assay [2] (setting [15]) it was 60%; in assay [3] (setting [9]), 50%; in assay [4] (setting [18]), 0%; in assay [5] (setting [12]) it was 90%. For the same compound, the pest or weed control at 500 g/ha in assay [1] (setting [14]) stood at 90%; in assay [2] (setting [16]), 60%; in assay [3] (setting [17]), 70%; in assay [4] (setting [19]), 30%; in assay [5] (setting [20]), 90%.
For `CN1C[C@H](c2cccc(COC(F)F)c2)[C@@H](C(=O)Nc2ccccc2S(C)(=O)=O)C1=O` [Compound 877], the pest or weed control at 125 g/ha in assay [1] (setting [6]) was 90%; in assay [2] (setting [15]) it was 0%; in assay [3] (setting [9]) it was 60%; in assay [4] (setting [18]), 0%; in assay [5] (setting [12]), 90%. In addition, the pest or weed control at 500 g/ha in assay [1] (setting [14]) stood at 100%; in assay [2] (setting [16]), 20%; in assay [3] (setting [17]), 80%; in assay [4] (setting [19]), 60%; in assay [5] (setting [20]) it was 90%.
With `Cc1cc(F)ccc1NC(=O)[C@H]1C(=O)NC[C@@H]1c1cccc(C(F)(F)F)c1` [Compound 828], the pest or weed control at 125 g/ha in assay [1] (setting [6]) is 70%; in assay [2] (setting [15]), 50%; in assay [3] (setting [9]) it was 40%; in assay [4] (setting [18]), 0%; in assay [5] (setting [12]), 90%. The pest or weed control at 500 g/ha in assay [1] (setting [14]) was 90%; in assay [2] (setting [16]), 70%; in assay [3] (setting [17]), 40%; in assay [4] (setting [19]) it was 0%; in assay [5] (setting [20]), 100%.
Turning to `CN1C[C@H](c2cc(F)cc(F)c2)[C@@H](C(=O)Nc2ccccc2[S@@+](C)[O-])C1=O` [Compound 872], the pest or weed control at 125 g/ha in assay [1] (setting [6]) came out at 90%; in assay [2] (setting [15]), 0%; in assay [3] (setting [9]), 0%; in assay [4] (setting [18]), 60%; in assay [5] (setting [12]) it was 90%. Moreover, the pest or weed control at 500 g/ha in assay [1] (setting [14]) was 100%; in assay [2] (setting [16]) it was 40%; in assay [3] (setting [17]) it was 80%; in assay [4] (setting [19]) it was 100%; in assay [5] (setting [20]), 90%.
In the case of `Cc1cc(C)cc([C@H]2CN(C)C(=O)[C@@H]2C(=O)Nc2ccccc2F)c1` [Compound 910], the pest or weed control at 125 g/ha came out at 90% in assay [1] (setting [6]); 50% in assay [2] (setting [15]); 60% in assay [3] (setting [9]); 0% in assay [4] (setting [18]); 90% in assay [5] (setting [12]). Besides, the pest or weed control at 500 g/ha in assay [1] (setting [14]) came to 100%; in assay [2] (setting [16]), 60%; in assay [3] (setting [17]) it was 90%; in assay [4] (setting [19]) it was 0%; in assay [5] (setting [20]), 100%.
Take `Cc1nc([C@H]2CNC(=O)[C@@H]2C(=O)Nc2ccccc2F)cs1` [Compound 1179]: the pest or weed control at 125 g/ha in assay [1] (preemergence, 0 to 100 scale where 0 is no effect and 100 is complete control, approx. 10 d, read-out: Barnyardgrass plant response rating) stood at 0%; in assay [2] (preemergence, 0 to 100 scale where 0 is no effect and 100 is complete control, approx. 10 d, read-out: Ryegrass, Italian plant response rating), 0%; in assay [3] (preemergence, 0 to 100 scale where 0 is no effect and 100 is complete control, approx. 10 d, read-out: Kochia plant response rating), 0%; in assay [4] (preemergence, 0 to 100 scale where 0 is no effect and 100 is complete control, approx. 10 d, read-out: Ragweed plant response rating), 0%; in assay [5] (preemergence, 0 to 100 scale where 0 is no effect and 100 is complete control, approx. 10 d, read-out: Foxtail, Giant plant response rating), 0%. Also, the pest or weed control at 500 g/ha in assay [1] (setting [6]), in assay [2] (setting [15]), in assay [3] (setting [9]), in assay [4] (setting [18]) and in assay [5] (setting [12]) was 0% each time.
In the case of `COc1c(F)ccc([C@H]2CNC(=O)[C@@H]2C(=O)Nc2cccc(F)c2F)c1Cl` [Compound 882], the pest or weed control at 125 g/ha was 90% in assay [1] (setting [6]); 0% in assay [2] (setting [15]); 70% in assay [3] (setting [9]); 30% in assay [4] (setting [18]); 70% in assay [5] (setting [12]). The pest or weed control at 500 g/ha in assay [1] (setting [14]) amounted to 90%; in assay [2] (setting [16]) it was 30%; in assay [3] (setting [17]), 90%; in assay [4] (setting [19]), 60%; in assay [5] (setting [20]), 90%.
For `CN1CC[C@H](c2ccc(F)cc2)[C@@H](C(=O)Nc2ccccc2F)C1=O` [Compound 917], the pest or weed control at 125 g/ha in assay [1] (setting [6]) turned out to be 20%; in assay [2] (setting [15]), 0%; in assay [3] (setting [9]), 0%; in assay [4] (setting [18]), 0%; in assay [5] (setting [12]), 30%. Besides, the pest or weed control at 500 g/ha in assay [1] (setting [14]) was found to be 80%; in assay [2] (setting [16]) it was 0%; in assay [3] (setting [17]), 0%; in assay [4] (setting [19]), 0%; in assay [5] (setting [20]), 90%.
